Data as given in PubChem BioAssay (NCI).
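How tested: cells in 96-well plates exposed to compound for 48 hours at five concentrations. Here, GI50 denotes the concentration required for 50% inhibition of growth. TGI: total growth inhibition.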

What was measured:
Experiment in all cases: DTP human tumour cell line panel, 48 h
SK-OV-3 ovarian = system: SK-OV-3 ovarian
SF-268 CNS = system: SF-268 CNS
MDA-MB-435 = system: MDA-MB-435
786-0 renal = system: 786-0 renal
DU-145 prostate = system: DU-145 prostate
SR leukemia = system: SR leukemia
IGROV1 ovarian = system: IGROV1 ovarian
U251 CNS = system: U251 CNS
SNB-19 CNS = system: SNB-19 CNS
HOP-62 NSCLC = system: HOP-62 NSCLC
RPMI-8226 leukemia = system: RPMI-8226 leukemia
PC-3 prostate = system: PC-3 prostate
OVCAR-3 ovarian = system: OVCAR-3 ovarian
HCC-2998 colon = system: HCC-2998 colon
A498 renal = system: A498 renal
HCT-15 colon = system: HCT-15 colon
SNB-75 CNS = system: SNB-75 CNS
UACC-257 melanoma = system: UACC-257 melanoma
NCI-H460 lung = system: NCI-H460 lung
SK-MEL-2 melanoma = system: SK-MEL-2 melanoma
UACC-62 melanoma = system: UACC-62 melanoma
KM12 colon = system: KM12 colon
RXF 393 renal = system: RXF 393 renal
HOP-92 NSCLC = system: HOP-92 NSCLC
CAKI-1 renal = system: CAKI-1 renal
SW-620 colon = system: SW-620 colon
OVCAR-8 ovarian = system: OVCAR-8 ovarian
NCI-H522 lung = system: NCI-H522 lung
A549 NSCLC = system: A549 NSCLC
K-562 leukemia = system: K-562 leukemia
HS 578T breast = system: HS 578T breast
HL-60(TB) leukemia = system: HL-60(TB) leukemia
TK-10 renal = system: TK-10 renal
NCI-H226 lung = system: NCI-H226 lung
OVCAR-5 ovarian = system: OVCAR-5 ovarian
MDA-MB-231 breast = system: MDA-MB-231 breast
SK-MEL-5 melanoma = system: SK-MEL-5 melanoma
ACHN renal = system: ACHN renal
HCT-116 colon = system: HCT-116 colon
M14 melanoma = system: M14 melanoma
SF-539 CNS = system: SF-539 CNS
EKVX NSCLC = system: EKVX NSCLC
MOLT-4 leukemia = system: MOLT-4 leukemia
MALME-3M melanoma = system: MALME-3M melanoma
SN12C renal = system: SN12C renal
HT29 colon = system: HT29 colon
BT-549 breast = system: BT-549 breast
UO-31 renal = system: UO-31 renal
SK-MEL-28 melanoma = system: SK-MEL-28 melanoma
MCF7 breast = system: MCF7 breast
NCI/ADR-RES ovarian = system: NCI/ADR-RES ovarian
OVCAR-4 ovarian = system: OVCAR-4 ovarian
COLO 205 colon = system: COLO 205 colon
NCI-H23 lung = system: NCI-H23 lung
LOX IMVI melanoma = system: LOX IMVI melanoma
CCRF-CEM leukemia = system: CCRF-CEM leukemia

Question: What does the source list for `COc1cc(-c2ccc(-c3ccc(C(=N)N)nc3)s2)cc(OC)c1OC`?
Answer: GI50 (SK-OV-3 ovarian): 13100 nM; TGI (SK-OV-3 ovarian): 26000 nM; GI50 (SF-268 CNS): 14600 nM; TGI (SF-268 CNS): 33200 nM; GI50 (MDA-MB-435): 1620 nM; TGI (MDA-MB-435): 3050 nM; GI50 (786-0 renal): 2120 nM; TGI (786-0 renal): 3930 nM; GI50 (DU-145 prostate): 3450 nM; TGI (DU-145 prostate): 12100 nM; GI50 (SR leukemia): 2480 nM; GI50 (IGROV1 ovarian): 2630 nM; TGI (IGROV1 ovarian): 6200 nM; GI50 (U251 CNS): 1740 nM; TGI (U251 CNS): 3530 nM; GI50 (SNB-19 CNS): 4730 nM; TGI (SNB-19 CNS): 16300 nM; GI50 (HOP-62 NSCLC): 2790 nM; TGI (HOP-62 NSCLC): 11500 nM; GI50 (RPMI-8226 leukemia): 1670 nM; TGI (RPMI-8226 leukemia): 3970 nM; GI50 (PC-3 prostate): 3110 nM; TGI (PC-3 prostate): 12700 nM; GI50 (OVCAR-3 ovarian): 2600 nM; TGI (OVCAR-3 ovarian): 6350 nM; GI50 (HCC-2998 colon): 2000 nM; TGI (HCC-2998 colon): 3900 nM; GI50 (A498 renal): 4900 nM; TGI (A498 renal): 18200 nM; GI50 (HCT-15 colon): 2180 nM; TGI (HCT-15 colon): 6410 nM; GI50 (SNB-75 CNS): 1500 nM; TGI (SNB-75 CNS): 5160 nM; GI50 (UACC-257 melanoma): 2150 nM; TGI (UACC-257 melanoma): 4070 nM; GI50 (NCI-H460 lung): 2100 nM; TGI (NCI-H460 lung): 4390 nM; GI50 (SK-MEL-2 melanoma): 2090 nM; TGI (SK-MEL-2 melanoma): 4350 nM; GI50 (UACC-62 melanoma): 1730 nM; TGI (UACC-62 melanoma): 3300 nM; GI50 (KM12 colon): 2780 nM; TGI (KM12 colon): 10500 nM; GI50 (RXF 393 renal): 2190 nM; TGI (RXF 393 renal): 4830 nM; GI50 (HOP-92 NSCLC): 1910 nM; TGI (HOP-92 NSCLC): 8370 nM; GI50 (CAKI-1 renal): 1590 nM; TGI (CAKI-1 renal): 3190 nM; GI50 (SW-620 colon): 2090 nM; TGI (SW-620 colon): 5240 nM; GI50 (OVCAR-8 ovarian): 2300 nM; TGI (OVCAR-8 ovarian): 5230 nM; GI50 (NCI-H522 lung): 1800 nM; TGI (NCI-H522 lung): 4140 nM; GI50 (A549 NSCLC): 2060 nM; TGI (A549 NSCLC): 4510 nM; GI50 (K-562 leukemia): 1390 nM; TGI (K-562 leukemia): 4460 nM; GI50 (HS 578T breast): 2590 nM; TGI (HS 578T breast): 8520 nM; GI50 (HL-60(TB) leukemia): 1870 nM; TGI (HL-60(TB) leukemia): 4210 nM; GI50 (TK-10 renal): 3190 nM; TGI (TK-10 renal): 9350 nM; GI50 (NCI-H226 lung): 10800 nM; TGI (NCI-H226 lung): 31100 nM; GI50 (OVCAR-5 ovarian): 2100 nM; TGI (OVCAR-5 ovarian): 5380 nM; GI50 (MDA-MB-231 breast): 1850 nM; TGI (MDA-MB-231 breast): 4200 nM; GI50 (SK-MEL-5 melanoma): 1670 nM; TGI (SK-MEL-5 melanoma): 3080 nM; GI50 (ACHN renal): 1730 nM; TGI (ACHN renal): 3140 nM; GI50 (HCT-116 colon): 1470 nM; TGI (HCT-116 colon): 2870 nM; GI50 (M14 melanoma): 1660 nM; TGI (M14 melanoma): 3330 nM; GI50 (SF-539 CNS): 1610 nM; TGI (SF-539 CNS): 3010 nM; GI50 (EKVX NSCLC): 5190 nM; TGI (EKVX NSCLC): 18200 nM; GI50 (MOLT-4 leukemia): 2530 nM; TGI (MOLT-4 leukemia): 6900 nM; GI50 (MALME-3M melanoma): 1530 nM; TGI (MALME-3M melanoma): 3000 nM; GI50 (SN12C renal): 2050 nM; TGI (SN12C renal): 4710 nM; GI50 (HT29 colon): 1370 nM; TGI (HT29 colon): 5680 nM; GI50 (BT-549 breast): 1670 nM; TGI (BT-549 breast): 3490 nM; GI50 (UO-31 renal): 1880 nM; TGI (UO-31 renal): 3400 nM; GI50 (SK-MEL-28 melanoma): 1620 nM; TGI (SK-MEL-28 melanoma): 3180 nM; GI50 (MCF7 breast): 1300 nM; TGI (MCF7 breast): 3240 nM; GI50 (NCI/ADR-RES ovarian): 5200 nM; TGI (NCI/ADR-RES ovarian): 24100 nM; GI50 (OVCAR-4 ovarian): 2690 nM; TGI (OVCAR-4 ovarian): 10400 nM; GI50 (COLO 205 colon): 1600 nM; TGI (COLO 205 colon): 3260 nM; GI50 (NCI-H23 lung): 6400 nM; TGI (NCI-H23 lung): 22600 nM; GI50 (LOX IMVI melanoma): 1870 nM; TGI (LOX IMVI melanoma): 3480 nM; GI50 (CCRF-CEM leukemia): 2490 nM; TGI (CCRF-CEM leukemia): 7410 nM

Question: With `Cc1c2c(cc[n+]1Cc1ccccc1)c1ccc(OCc3ccccc3)cc1n2Cc1ccccc1` as the compound, how does the GI50 (SK-OV-3 ovarian) read?
Answer: 1110 nM

Question: And the TGI (SK-OV-3 ovarian)?
Answer: 2360 nM

Question: And the GI50 (DU-145 prostate)?
Answer: 499 nM

Question: What about the TGI (DU-145 prostate) of the same compound?
Answer: 1740 nM

Question: What about the GI50 (RPMI-8226 leukemia) of the same compound?
Answer: 231 nM

Question: What about the TGI (RPMI-8226 leukemia) of the same compound?
Answer: 1950 nM

Question: What about the GI50 (HCT-15 colon) of the same compound?
Answer: 2010 nM

Question: What about the TGI (HCT-15 colon) of the same compound?
Answer: 4640 nM

Question: And the GI50 (UACC-257 melanoma)?
Answer: 245 nM

Question: What about the TGI (UACC-257 melanoma) of the same compound?
Answer: 789 nM

Question: What about the GI50 (UACC-62 melanoma) of the same compound?
Answer: 286 nM

Question: And the TGI (UACC-62 melanoma)?
Answer: 1210 nM

Question: And the GI50 (CAKI-1 renal)?
Answer: 1670 nM

Question: And the TGI (CAKI-1 renal)?
Answer: 3670 nM

Question: And the GI50 (HL-60(TB) leukemia)?
Answer: 202 nM

Question: And the TGI (HL-60(TB) leukemia)?
Answer: 470 nM

Question: And the GI50 (OVCAR-5 ovarian)?
Answer: 984 nM

Question: And the TGI (OVCAR-5 ovarian)?
Answer: 2210 nM

Question: And the GI50 (SK-MEL-5 melanoma)?
Answer: 182 nM

Question: What about the TGI (SK-MEL-5 melanoma) of the same compound?
Answer: 366 nM

Question: What about the GI50 (ACHN renal) of the same compound?
Answer: 1510 nM

Question: What about the TGI (ACHN renal) of the same compound?
Answer: 2840 nM

Question: What about the GI50 (SK-MEL-28 melanoma) of the same compound?
Answer: 515 nM

Question: And the TGI (SK-MEL-28 melanoma)?
Answer: 1860 nM

Question: What about the GI50 (NCI/ADR-RES ovarian) of the same compound?
Answer: 5780 nM

Question: And the TGI (NCI/ADR-RES ovarian)?
Answer: > 69300 nM

Question: What about the GI50 (CCRF-CEM leukemia) of the same compound?
Answer: 336 nM

Question: What about the TGI (CCRF-CEM leukemia) of the same compound?
Answer: 2090 nM
